Data: patent US7947726B2, “Non-steroidal ligands for the glucocorticoid receptor, and compositions thereof” (The Regents of the University of California, priority 2002, dated 2011)
Read-outs that look alike come from different tables or passages of the source. Values belong to the compound of their own block, whether it stands above or below them.

Tests used:
[1] = biological target: T1, GR (Homo sapiens, UniProt P04150); test: GRE (TAT3-Luc) activation luciferase assay in CV-1 cells transfected with GR; type: cell-based
T1 construct: expressed in transfected cells; host or cells: CV-1 cells, transient transfection (plasmid a gift of Keith Yamamoto, UCSF)
T1 sequence (P04150 1-777): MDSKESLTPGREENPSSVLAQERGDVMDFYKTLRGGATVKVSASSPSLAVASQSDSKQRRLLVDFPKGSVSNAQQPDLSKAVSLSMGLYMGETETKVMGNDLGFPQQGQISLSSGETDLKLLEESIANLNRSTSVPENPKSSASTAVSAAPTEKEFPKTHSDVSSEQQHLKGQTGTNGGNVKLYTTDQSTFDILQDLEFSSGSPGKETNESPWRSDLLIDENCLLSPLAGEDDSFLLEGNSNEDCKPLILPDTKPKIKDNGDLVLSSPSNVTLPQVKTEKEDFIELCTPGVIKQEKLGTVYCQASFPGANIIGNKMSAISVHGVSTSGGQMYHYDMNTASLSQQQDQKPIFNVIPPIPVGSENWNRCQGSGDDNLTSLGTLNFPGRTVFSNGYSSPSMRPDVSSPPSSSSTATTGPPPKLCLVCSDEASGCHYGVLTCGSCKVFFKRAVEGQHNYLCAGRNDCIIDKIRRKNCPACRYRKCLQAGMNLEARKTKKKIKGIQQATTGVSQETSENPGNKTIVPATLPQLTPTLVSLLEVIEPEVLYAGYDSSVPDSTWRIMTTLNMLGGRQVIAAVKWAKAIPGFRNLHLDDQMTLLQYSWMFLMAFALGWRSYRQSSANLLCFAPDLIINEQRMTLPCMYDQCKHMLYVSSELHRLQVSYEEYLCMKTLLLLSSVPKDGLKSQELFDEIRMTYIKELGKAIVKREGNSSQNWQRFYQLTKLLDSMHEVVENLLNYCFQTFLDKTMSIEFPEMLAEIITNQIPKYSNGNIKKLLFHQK
Protocol: Cells were plated into tissue culture treated, 96 well flat bottom plates (25,000 cells/well), and incubated for 12 h at 37° C. Cells were then transfected using the Lipofectamine PLUS transfection reagent (Gibco BRL). DNA-lipid complexes of 5 ng GR, 50 ng TAT3-Luc, 7.5 ng β-galactosidase, 1 μL-well PLUS reagent and 0.67 μL-well lipofectamine in 50 μL/well serum free media were added to cells and incubated for 4 h at 37° C. Complexes were removed and hormones diluted in 5% charcoal-stripped FBS were added to the cells, which were then incubated for 24 hours at 37° C. Media was removed and the cells were washed with 100 μL Ca^+2, Mg^+2 free phosphate buffered saline (PBS). Lysis was achieved by adding 50 μL of Passive Lysis Buffer (Promega Corp, Madison, Wis.) and shaking the plate for 15 min. 15 μL of this lysate was then used to assay β-galactosidase activity (β-galactosidase enzyme assay system, Promega Corp., recommended procedures followed). The Luciferase Assay System (Promega Corp.) was used to assay luciferase activity. 100 μL of luciferase assay reagent was added rapidly to the plate and luminescence was measured for 10 ms/well on an Analyst AD Detection System (LJL Biosystems, Sunnyvale, Calif.).

[2] = biological target: T2, MR (Homo sapiens, UniProt P08235); test: MR activation (max fold activation); type: cell-based; conditions: Table 4
T2 sequence (P08235 1-984): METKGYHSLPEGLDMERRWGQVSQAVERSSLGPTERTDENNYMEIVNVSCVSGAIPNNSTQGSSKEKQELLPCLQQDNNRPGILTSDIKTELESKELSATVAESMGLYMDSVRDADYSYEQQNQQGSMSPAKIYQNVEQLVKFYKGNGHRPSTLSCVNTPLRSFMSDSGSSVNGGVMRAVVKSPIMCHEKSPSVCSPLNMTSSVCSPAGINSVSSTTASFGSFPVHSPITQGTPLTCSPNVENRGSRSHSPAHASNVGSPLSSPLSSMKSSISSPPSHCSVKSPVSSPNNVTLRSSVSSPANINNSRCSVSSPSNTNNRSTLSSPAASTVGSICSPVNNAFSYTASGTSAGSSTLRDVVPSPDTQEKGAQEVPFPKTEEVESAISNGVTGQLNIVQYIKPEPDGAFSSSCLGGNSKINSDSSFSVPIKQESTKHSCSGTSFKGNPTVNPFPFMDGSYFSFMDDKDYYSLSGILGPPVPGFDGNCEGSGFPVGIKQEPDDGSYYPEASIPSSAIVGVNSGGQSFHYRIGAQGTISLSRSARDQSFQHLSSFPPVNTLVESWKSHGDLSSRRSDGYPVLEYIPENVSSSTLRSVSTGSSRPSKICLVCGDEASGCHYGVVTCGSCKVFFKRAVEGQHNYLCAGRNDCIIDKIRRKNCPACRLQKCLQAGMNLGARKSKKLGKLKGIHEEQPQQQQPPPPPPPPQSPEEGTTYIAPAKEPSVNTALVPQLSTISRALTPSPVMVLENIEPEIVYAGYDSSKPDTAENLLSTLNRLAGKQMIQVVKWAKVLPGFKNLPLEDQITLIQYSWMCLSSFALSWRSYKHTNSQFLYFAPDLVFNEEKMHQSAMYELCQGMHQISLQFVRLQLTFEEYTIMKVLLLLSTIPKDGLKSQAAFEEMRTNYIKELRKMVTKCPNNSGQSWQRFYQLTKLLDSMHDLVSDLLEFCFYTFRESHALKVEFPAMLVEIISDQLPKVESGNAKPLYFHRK

[3] = biological target: T3, glucocorticoid receptor (GR) (Homo sapiens, UniProt P04150); test: Glucocorticoid Receptor Competitor Assay Kit (Panvera) ligand binding; conditions: for GR binding RBA (dex = 100): Table 3; for GR binding RBA (dex = 100) / GR Binding RBA (dexamethasone = 100): relative binding affinity, dexamethasone = 100; for GR Binding RBA (dexamethasone = 100): Table 1
T3 construct: purchased Panvera Corp, Madison, Wis
T3 sequence (P04150 1-777): T1 sequence (P04150 1-777)
Description: The Glucocorticoid Receptor Competitor Assay Kit (Panvera Corp, Madison, Wis.) was used for ligand binding studies. The recommended room temperature protocol was followed for all assayed ligands.

[4] = biological target: T4, GR (Rattus norvegicus, UniProt P06536); test: AP-1 repression luciferase assay in U2OS cells stably transfected with rat GR; type: cell-based; conditions: Table 5, TPA-stimulated U2OS cells; for EC50: read-out: Repression AP-1 pot (EC50); for Emax: U2OS, 12 h, read-out: Repression AP-1 % max repression
T4 construct: expressed in transfected cells; gift of Keith Yamamoto
T4 sequence (P06536 1-795): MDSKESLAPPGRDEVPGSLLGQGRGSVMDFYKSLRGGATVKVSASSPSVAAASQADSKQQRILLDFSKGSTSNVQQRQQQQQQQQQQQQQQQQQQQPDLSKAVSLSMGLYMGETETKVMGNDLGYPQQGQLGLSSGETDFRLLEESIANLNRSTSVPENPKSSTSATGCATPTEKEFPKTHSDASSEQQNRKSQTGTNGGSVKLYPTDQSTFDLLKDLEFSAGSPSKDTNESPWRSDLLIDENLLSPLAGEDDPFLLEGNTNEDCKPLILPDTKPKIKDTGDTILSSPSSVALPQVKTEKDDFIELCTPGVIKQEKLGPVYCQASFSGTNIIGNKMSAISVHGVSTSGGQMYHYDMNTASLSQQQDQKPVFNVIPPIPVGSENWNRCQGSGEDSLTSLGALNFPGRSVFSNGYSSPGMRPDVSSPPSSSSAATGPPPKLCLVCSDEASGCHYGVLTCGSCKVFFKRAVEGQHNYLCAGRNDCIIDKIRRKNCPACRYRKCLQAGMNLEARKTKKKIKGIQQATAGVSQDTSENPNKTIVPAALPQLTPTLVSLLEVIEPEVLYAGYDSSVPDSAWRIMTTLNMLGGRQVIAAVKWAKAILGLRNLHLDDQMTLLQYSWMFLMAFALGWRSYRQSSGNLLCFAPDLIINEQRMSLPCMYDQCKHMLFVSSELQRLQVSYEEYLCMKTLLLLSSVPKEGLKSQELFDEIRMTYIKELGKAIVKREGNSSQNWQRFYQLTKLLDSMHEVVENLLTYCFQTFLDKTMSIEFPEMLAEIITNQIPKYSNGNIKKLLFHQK
Protocol: For API repression assays, U2OS cells stably transfected with rat GR were grown in similar media as for CV-1 cells with the exception of the FBS concentration, which was 10% and the only antibiotic was […]. Cells were plated and transfected in a similar fashion, except for plasmids, which in this case were 50 ng/well AP1-Luc and 10 ng/well β-galactosidase. Post-transfection, cells were incubated with either 50 ng/mL TPA (Phorbol 12-myristate 13-acetate), or 50 ng/mL TPA and various hormone dilutions in 10% charcoal treated FBS media. The cells were incubated for 12 h, and the lysis, β-galactosidase assay, and luciferase assay were performed as previously described.

[5] = system: Coll A; test: Coll A repression; type: cell-based; conditions: for Emax: read-out: Repression Coll A % max repression; for EC50: read-out: Repression Coll A pot (EC50)
[6] = Table 4, read-out: GR pot (EC50)
[7] = read-out: IC50 in a GR binding assay
[8] = Table 2, read-out: GR Binding (IC50)

SMILES: C[C@]12CCC(=O)C=C1CC[C@@H]1[C@@H]2[C@@H](O)C[C@]2(C=O)[C@@H](C(=O)CO)CC[C@@H]12 [Aldosterone, reference compound]
GRE activation max fold activation ([1]; Table 4, fold): 41 | EC50 [1, 6]: 0.765 µM | MR max fold activation [2]: 6.1 ± 1.5

SMILES: CC12Cc3cnn(-c4ccc(F)cc4)c3C=C1CCCC2=O (centres unmarked) [Compound 205, 1-(4-Fluoro-phenyl)-4a-methyl-1,4,4a,6,7,8-hexahydro-benzo[f]indazol-5-one]
IC50 [3, 7]: 0.436 µM

SMILES: COc1cc(C(O)C2CCCC3=Cc4c(cnn4-c4ccc(F)cc4)CC32C)cc(OC)c1OC (centres unmarked) [Compound 223, [1-(4-Fluoro-phenyl)-4a-methyl-4,4a,5,6,7,8-hexahydro-1H-benzo[f]indazol-5-yl]-(3,4,5-trimethoxyphenyl)-methanol]
GR binding RBA (dex = 100) [3]: 47 | GRE activation max fold activation ([1]; Table 4, fold): 32 ± 2 | EC50 [1, 6]: 0.143 ± 0.027 µM | EC50 [4]: 0.0067 µM | Emax [4]: 74%

SMILES: Cc1cc(O)cc(C)c1C(=O)C1CCCC2=Cc3c(cnn3-c3ccc(F)cc3)CC21C (centres unmarked) [Compound 228, 4-{[1-(4-Fluoro-phenyl)-4a-methyl-4,4a,5,6,7,8-hexahydro-1H-benzo[f]indazol-5-yl]-keto-methyl}-3,5-dimethyl-phenol]
GR Binding RBA (dexamethasone = 100) [3]: 16

SMILES: Cc1cc(O)cc(C)c1CC1CCCC2=Cc3c(cnn3-c3ccc(F)cc3)CC21C (centres unmarked) [Compound 230, 4-{[1-(4-Fluoro-phenyl)-4a-methyl-4,4a,5,6,7,8-hexahydro-1H-benzo[f]indazol-5-yl]-methyl}-3,5-dimethyl-phenol]
GR Binding RBA (dexamethasone = 100) [3]: 22

SMILES: COCOC(c1c(C)cc(O)cc1C)C1CCCC2=Cc3c(cnn3-c3ccc(F)cc3)CC21C (centres unmarked) [Compound 232, 4-{[1-(4-Fluoro-phenyl)-4a-methyl-4,4a,5,6,7,8-hexahydro-1H-benzo[f]indazol-5-yl]-methoxymethoxy-methyl}-3,5-dimethyl-phenol]
GR Binding RBA (dexamethasone = 100) [3]: 26 | EC50 ([1]; Table 1, read-out: GR pot(EC50)): 0.082 µM

SMILES: Cc1cc(C(O)C2CCCC3=Cc4c(cnn4-c4ccc(F)cc4)CC32C)ccc1O (centres unmarked) [Compound 235, 4-{[1-(4-Fluoro-phenyl)-4a-methyl-4,4a,5,6,7,8-hexahydro-1H-benzo[f]indazol-5-yl]-hydroxy-methyl}-2-methyl-phenol]
GR binding RBA (dex = 100) [3]: 110 | GRE activation max fold activation ([1]; Table 4, fold): 76 | EC50 [1, 6]: 0.081 µM | EC50 [4]: 0.0166 µM | Emax [4]: 74%

SMILES: CC12Cc3cnn(-c4ccc(F)cc4)c3C=C1CCCC2C(O)c1cc2ccccc2c2ccccc12 (centres unmarked) [Compound 259, [1-(4-Fluoro-phenyl)-4a-methyl-4,4a,5,6,7,8-hexahydro-1H-benzo[f]indazol-5-yl]-phenanthren-9-yl-methanol]
Emax ([5]; Table 5): 73% | EC50 ([5]; Table 5): 0.783 µM | GR binding RBA (dex = 100) [3]: 72 | EC50 [1, 6]: > 5 µM

Continued, in another order:

IC50 [3, 7]: 0.174 µM
SMILES: CC12Cc3cnn(-c4cccc(C#Cc5ccccc5)c4)c3C=C1CCCC2=O (centres unmarked) [Compound 261, 4a-Methyl-1-(3-phenylethynyl-phenyl)-1,4,4a,6,7,8-hexahydro-benzo[f]indazol-5-one]

IC50 [3, 8]: 0.708 µM
SMILES: CC12Cc3cnn(-c4ccc(F)cc4)c3C=C1CCc1c2[nH]c2ccc(Br)cc12 (centres unmarked) [Compound 263, 3-(4-fluoro-phenyl)-8-bromo-11b-methyl-5,6,12-trihydro-indazolo[5,6-a]carbazole]

IC50 [3, 8]: 0.239 µM
SMILES: COc1ccc2[nH]c3c(c2c1)CCC1=Cc2c(cnn2-c2ccc(F)cc2)CC13C (centres unmarked) [Compound 265, 3-(4-fluoro-phenyl)-8-methoxy-11b-methyl-5,6,12-trihydro-indazolo[5,6-a]carbazole]

EC50 ([5]; Table 2): 0.1 µM | IC50 [3, 8]: 0.13 µM | GRE Activation Max fold activation ([1]; Table 2, fold): 18
SMILES: CC12Cc3cnn(-c4ccc(F)cc4)c3C=C1CCc1c2[nH]c2ccc(F)cc12 (centres unmarked) [Compound 267, 3-(4-fluoro-phenyl)-8-fluoro-11b-methyl-5,6,12-trihydro-indazolo[5,6-a]carbazole]
Emax ([5]; Table 2): 75%

EC50 ([5]; Table 2): > 5 µM | IC50 [3, 8]: 0.043 µM | EC50 ([1]; Table 2, read-out: GRE Activation GR pot (EC50)): > 5 µM
SMILES: CC12Cc3cnn(-c4ccc(F)cc4)c3C=C1CCC(=Cc1c3ccccc3cc3ccccc13)C2=O (centres unmarked) [Compound 269, 6-Anthracen-9-ylmethylene-1-(4-fluoro-phenyl)-4a-methyl-1,4,4a,6,7,8-hexahydro-benzo[f]indazol-5-one]
